Counter-ions that a name gives are not always drawn.
How the values were obtained:
norepinephrine uptake = details: cited from earlier work
monoamine oxidase = details: cited from earlier work
[1] = Stability of escitalopram oxalate in commercial formulations and in contact with bupropion hydrochloride; assay type: physicochemical
Text: Preferably, the bupropion and escitalopram in the oral dosage form are physically separated. The inventors have discovered that conventional formulations of escitalopram hydrobromide and escitalopram oxalate unexpectedly degrade under storage conditions. […] The escitalopram and bupropion may be separated by having separate discrete zones of the dosage form (such as different layers) for each component. Alternatively, the dosage form may include a plurality of escitalopram tablets or beads and a plurality of bupropion tablets or beads, where one or both of the escitalopram tablets/beads and bupropion tablets/beads are coated.

time stable in commercial formulations ([1]; commercial formulations)	degradation rate compared with commercial formulations ([1]; stored in intimate contact with bupropion hydrochloride)	Compound	blockade of norepinephrine uptake (norepinephrine uptake)	inhibition of monoamine oxidase (monoamine oxidase)
–	–	CC(NC(C)(C)C)C(=O)c1cccc(Cl)c1 (racemic) [bupropion, (±)-1-(3-chlorophenyl)-2-[(1,1-dimethylethyl)amino]-1-propanone]	weak blocker	does not inhibit
about 12 months	degrades significantly more rapidly	CN(C)CCC[C@@]1(c2ccc(F)cc2)OCc2cc(C#N)ccc21 [escitalopram oxalate]	–	–

Reference: US20070112075A1 (Forest Laboratories, Inc., priority 2005, published 2007)
